# Experimental data: ChEMBL document CHEMBL5108059, “Discovery of 2-Methyl-2-(4-(2-methyl-8-(1H-pyrrolo[2,3-b]pyridin-6-yl)-1H-naphtho[1,2-d]imidazol-1-yl)phenyl)propanenitrile as a Novel PI3K/mTOR Inhibitor with Enhanced Antitumor Efficacy In Vitro and In Vivo” (J Med Chem, 2022)
# Tests used:
# [1] = target: Phosphatidylinositol 4,5-bisphosphate 3-kinase catalytic subunit alpha isoform (Homo sapiens, UniProt P42336); assay: Inhibition of PI3Kalpha (unknown origin) using L-alpha-phosphatidylinositol as substrate incubated for 60 mins in presence of ATP by Kinase Glo luminescence assay
# Sequence of Phosphatidylinositol 4,5-bisphosphate 3-kinase catalytic subunit alpha isoform (P42336 whole entry, canonical isoform): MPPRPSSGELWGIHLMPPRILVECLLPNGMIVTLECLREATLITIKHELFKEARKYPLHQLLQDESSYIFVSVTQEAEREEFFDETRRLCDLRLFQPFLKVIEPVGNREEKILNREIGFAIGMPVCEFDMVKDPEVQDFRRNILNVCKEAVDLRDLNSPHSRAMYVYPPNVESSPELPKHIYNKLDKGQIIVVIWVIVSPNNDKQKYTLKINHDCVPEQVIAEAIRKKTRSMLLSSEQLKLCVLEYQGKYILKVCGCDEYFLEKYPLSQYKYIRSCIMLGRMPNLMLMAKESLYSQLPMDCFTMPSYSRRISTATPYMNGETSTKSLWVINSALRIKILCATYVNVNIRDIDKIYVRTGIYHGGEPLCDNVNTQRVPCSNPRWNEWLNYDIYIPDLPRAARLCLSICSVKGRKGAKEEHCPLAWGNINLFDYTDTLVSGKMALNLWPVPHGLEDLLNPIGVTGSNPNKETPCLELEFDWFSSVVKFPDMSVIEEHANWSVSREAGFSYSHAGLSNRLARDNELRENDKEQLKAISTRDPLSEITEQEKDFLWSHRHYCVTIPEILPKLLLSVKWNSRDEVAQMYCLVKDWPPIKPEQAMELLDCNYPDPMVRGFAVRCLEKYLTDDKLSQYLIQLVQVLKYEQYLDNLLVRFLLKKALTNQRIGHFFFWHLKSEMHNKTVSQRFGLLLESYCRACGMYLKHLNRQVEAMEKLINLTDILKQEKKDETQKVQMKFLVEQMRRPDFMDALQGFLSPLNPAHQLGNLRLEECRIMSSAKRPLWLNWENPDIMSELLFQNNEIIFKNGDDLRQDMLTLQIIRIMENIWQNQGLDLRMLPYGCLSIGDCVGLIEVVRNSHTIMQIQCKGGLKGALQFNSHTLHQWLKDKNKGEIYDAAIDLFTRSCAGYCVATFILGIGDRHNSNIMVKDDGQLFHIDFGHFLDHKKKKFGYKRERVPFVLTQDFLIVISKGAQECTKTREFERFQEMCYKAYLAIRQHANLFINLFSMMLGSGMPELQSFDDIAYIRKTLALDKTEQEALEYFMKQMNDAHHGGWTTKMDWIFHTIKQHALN
# [2] = AUC (0 to infinity) in Sprague-Dawley rat at 1 mg/kg, iv measured for 24 hrs by LC-MS/MS analysis; type: ADME, organism-based; set-up: time 24 hrs, dose 1 mg/kg, route iv; conditions: in vivo
# HeLa [3] = assay: Induction of apoptosis in human HeLa cells assessed as late apoptotic cells at 2.5 uM incubated for 36 hrs by Annexin V-FITC/PI staining based flow cytometric analysis (reference value: 1.4 %); type: functional
# [4] = Toxicity in BALB/c nude mouse xenografted with human HeLa cells assessed as pathological changes in lung at 60 mg/kg, IG administered daily for 30 days by hematoxylin and eosin staining based microscopic analysis; type: organism-based; conditions: in vivo, po, 720 h, time 30 day
# [5] = target: Serine/threonine-protein kinase mTOR (Rattus norvegicus, UniProt P42346); assay: Inhibition of rat brain mTOR using GST-p70S6K fusion protein as substrate preincubated for 30 mins followed by ATP addition and measured after 30 mins by K-Lisa assay; type: tissue-based
# [6] = Toxicity in BALB/c nude mouse xenografted with human HeLa cells assessed as pathological changes in heart at 60 mg/kg, IG administered daily for 30 days by hematoxylin and eosin staining based microscopic analysis; type: organism-based; conditions: in vivo, po, 720 h, time 30 day
# HeLa [7] = assay: Induction of apoptosis in human HeLa cells assessed as early apoptotic cells at 0.15625 uM incubated for 36 hrs by Annexin V-FITC/PI staining based flow cytometric analysis (reference value: 2.02 %); type: functional; conditions: 0.1562 µM
# SW-620 = assay: Induction of cell cycle arrest in human SW620 cells assessed as accumulation of cells at G0/G1 phase measured after 24 hrs by propidium iodide staining based flow cytometry analysis; type: functional; conditions: dose 0.15625-2.5 µM, DDE = dose-dependent effect
smiles,measurement,setting,value
Cc1nc2cnc3ccc(-c4cnc5[nH]ccc5c4)cc3c2n1-c1ccc(C(C)(C)C#N)nc1,IC50,[1],4 nM
same,AUC,[2],992 ng·h/mL
same,Activity,HeLa [3],38.86%
same,Activity,[4],Non-Toxic
same,IC50,[5],20.7 nM
same,Activity,[6],Non-Toxic
same,Activity,HeLa [7],4.18%
same,Activity,SW-620,Dde
